Test results taken from patent US5998376A, “Substance P treatment for immunostimulation” (priority 1998, dated 1999).

Tests used:
[1] = tested on: lymphocyte subpopulations; test: Flow cytometric analyses (FACS) of immune organs, JP-8 exposed mice; assay type: in vivo, C57B16 mice
Experimental: (§1) At 24 hours after the last exposure, the animals were sacrificed and the effects of exposure on the immune system examined. Immune organs (spleen, thymus, blood, lymph nodes and bone marrow) were recovered and analyzed for effects on organ weight, total cell numbers, immune cell populations (by differentials), and lymphocyte subpopulations (by flow cytometry). Assays were also performed to examine the effects of exposure on immune function. […] Similar effects on immune cell subpopulations were also observed in lymph nodes. In the thymus it appeared that the immature CD4^+ CD8^+ cells were differentially lost due to exposure. […] However, these effects are prevented or ameliorated by treatment of the animals with Substance P.
Flow cytometric analyses (FACS): One- and two-color FACS analyses are performed using a Becton-Dickinson FACStar Plus flow cytometer. Cells are stained with the indicated monoclonal antibodies according to standard procedures (Harris et al., id). Cells alone and cells reacted with conjugated isotype control, irrelevant mAbs are used as controls. Data is presented as the percentage of cells staining positive for each individual mAb.

[2] = tested on: immune system organs (spleen, lymph nodes and thymus); test: Organ Weight and Total Cell Recovery, JP-8 exposed mice; assay type: in vivo, C57B16 mice; design: Spleen Weight / Thymus Weight: unit not given here
Experimental: as §1
Organ Weight and Total Cell Recovery: For each of the immune system organs (spleen, lymph nodes and thymus) the wet weight is determined after removal using a microbalance. After processing of the organs into single cell suspensions the cell numbers and viabilities are determined using trypan blue staining. Histochemical differentials are performed at this time. Cell numbers and viabilities are again determined after centrifugation of the cell suspensions through density gradients to obtain mononuclear cells.

[3] = JP-8 dose 0 + SP or antagonist aerosol
[4] = JP-8 dose 0 + antagonist aerosol
[5] = JP-8 dose 1000 + SP or antagonist aerosol

**Q.** Which “BM CD3, cells staining positive” value [1, 3] does the source give for COc1ccccc1CN[C@H]1C2CCN(CC2)[C@H]1C(c1ccccc1)c1ccccc1 [CP, CP-96,345, reference compound] here?
**A.** The value was 16%.

**Q.** What about the “BM CD4, cells staining positive” value [1, 3] of the same compound?
**A.** Its value is 9%.

**Q.** What about the “BM CD8, cells staining positive” value [1, 3] of the same compound?
**A.** Its value is 7%.

**Q.** And the “BM CD45, cells staining positive” value [1, 3]?
**A.** Its value is 27%.

**Q.** What about the “BM MAC1, cells staining positive” value [1, 3] of the same compound?
**A.** The value was 33%.

**Q.** What about the “Spleen CD3, cells staining positive” value [1, 3] of the same compound?
**A.** Its value is 32%.

**Q.** What about the “Spleen CD4, cells staining positive” value [1, 3] of the same compound?
**A.** The value was 21%.

**Q.** What about the “Spleen CD8, cells staining positive” value [1, 3] of the same compound?
**A.** The value was 7%.

**Q.** And the “Spleen CD45, cells staining positive” value [1, 3]?
**A.** The value was 24%.

**Q.** What about the “Spleen MAC1, cells staining positive” value [1, 3] of the same compound?
**A.** Its value is 3%.

**Q.** What about the “Thymus CD3, cells staining positive” value [1, 3] of the same compound?
**A.** The value was 18%.

**Q.** What about the “Thymus DN, cells staining positive” value [1, 3] of the same compound?
**A.** The value was 13%.

**Q.** What about the “Thymus DP, cells staining positive” value [1, 3] of the same compound?
**A.** Its value is 75%.

**Q.** What about the “Thymus SP4, cells staining positive” value [1, 3] of the same compound?
**A.** Its value is 12%.

**Q.** What about the “Thymus SP8, cells staining positive” value [1, 3] of the same compound?
**A.** The value was 3%.

**Q.** What about the “LN CD3, cells staining positive” value [1, 4] of the same compound?
**A.** The value was 49%.

**Q.** And the “LN CD4, cells staining positive” value [1, 4]?
**A.** The value was 25%.

**Q.** And the “LN CD8, cells staining positive” value [1, 4]?
**A.** Its value is 12%.

**Q.** What about the “LN CD45, cells staining positive” value [1, 4] of the same compound?
**A.** Its value is 15%.

**Q.** What about the “LN MAC1, cells staining positive” value [1, 4] of the same compound?
**A.** The value was 1%.

**Q.** What about the “PBL CD3, cells staining positive” value [1, 4] of the same compound?
**A.** The value was 72%.

**Q.** And the “PBL CD4, cells staining positive” value [1, 4]?
**A.** The value was 29%.

**Q.** And the “PBL CD8, cells staining positive” value [1, 4]?
**A.** Its value is 13%.

**Q.** What about the “PBL CD45, cells staining positive” value [1, 4] of the same compound?
**A.** Its value is 12%.

**Q.** And the “PBL MAC1, cells staining positive” value [1, 4]?
**A.** The value was 7%.

**Q.** What about the “BM CD3, cells staining positive” value [1, 5] of the same compound?
**A.** Its value is 14%.

**Q.** And the “BM CD4, cells staining positive” value [1, 5]?
**A.** The value was 7%.

**Q.** And the “BM CD8, cells staining positive” value [1, 5]?
**A.** The value was 3%.

**Q.** What about the “BM CD45, cells staining positive” value [1, 5] of the same compound?
**A.** Its value is 41%.

**Q.** What about the “BM MAC1, cells staining positive” value [1, 5] of the same compound?
**A.** Its value is 26%.

**Q.** What about the “LN CD3, cells staining positive” value [1, 5] of the same compound?
**A.** The value was 95%.

**Q.** And the “LN CD4, cells staining positive” value [1, 5]?
**A.** The value was 35%.

**Q.** And the “LN CD8, cells staining positive” value [1, 5]?
**A.** Its value is 23%.

**Q.** What about the “PBL CD3, cells staining positive” value [1, 5] of the same compound?
**A.** Its value is 50%.

**Q.** What about the “PBL CD4, cells staining positive” value [1, 5] of the same compound?
**A.** Its value is 20%.

**Q.** And the “PBL CD8, cells staining positive” value [1, 5]?
**A.** The value was 15%.

**Q.** And the “PBL CD45, cells staining positive” value [1, 5]?
**A.** The value was 27%.

**Q.** And the “PBL MAC1, cells staining positive” value [1, 5]?
**A.** The value was 6%.

**Q.** And the “Spleen CD3, cells staining positive” value [1, 5]?
**A.** The value was 34%.

**Q.** What about the “Spleen CD4, cells staining positive” value [1, 5] of the same compound?
**A.** Its value is 16%.

**Q.** And the “Spleen CD8, cells staining positive” value [1, 5]?
**A.** The value was 9%.

**Q.** What about the “Spleen CD45, cells staining positive” value [1, 5] of the same compound?
**A.** Its value is 26%.

**Q.** What about the “Spleen MAC1, cells staining positive” value [1, 5] of the same compound?
**A.** Its value is 11%.

**Q.** And the “Thymus CD3, cells staining positive” value [1, 5]?
**A.** The value was 17%.

**Q.** What about the “Thymus DN, cells staining positive” value [1, 5] of the same compound?
**A.** The value was 12%.

**Q.** And the “Thymus DP, cells staining positive” value [1, 5]?
**A.** Its value is 65%.

**Q.** What about the “Thymus SP4, cells staining positive” value [1, 5] of the same compound?
**A.** The value was 17%.

**Q.** And the “Thymus SP8, cells staining positive” value [1, 5]?
**A.** Its value is 7%.

**Q.** What about the “BM Cell Number” value [2, 3] of the same compound?
**A.** Its value is 29.

**Q.** What about the “LN Cell Number” value [2, 3] of the same compound?
**A.** Its value is 9.8.

**Q.** What about the “Spleen Cell Number” value [2, 3] of the same compound?
**A.** Its value is 16.

**Q.** And the “Spleen Weight” value [2, 3]?
**A.** Its value is 0.12.

**Q.** What about the “Thymus Cell Number” value [2, 3] of the same compound?
**A.** Its value is 50.

**Q.** And the “Thymus Weight” value [2, 3]?
**A.** The value was 0.12.

**Q.** And the “BM Cell Number” value [2, 5]?
**A.** The value was 22.

**Q.** What about the “LN Cell Number” value [2, 5] of the same compound?
**A.** The value was 7.1.

**Q.** What about the “Spleen Cell Number” value [2, 5] of the same compound?
**A.** Its value is 7.

**Q.** And the “Spleen Weight” value [2, 5]?
**A.** Its value is 0.16.

**Q.** And the “Thymus Cell Number” value [2, 5]?
**A.** The value was 75.

**Q.** And the “Thymus Weight” value [2, 5]?
**A.** Its value is 0.12.

**Q.** For COc1ccccc1CC(=N)N1C[C@@H]2C(=O)CCC(c3ccccc3)(c3ccccc3)[C@@H]2C1 [RP, MRP-67,580, reference compound], which “BM CD3, cells staining positive” value [1, 5] is on record?
**A.** Its value is 12%.

**Q.** What about the “BM CD4, cells staining positive” value [1, 5] of the same compound?
**A.** The value was 6%.

**Q.** What about the “BM CD8, cells staining positive” value [1, 5] of the same compound?
**A.** Its value is 5%.

**Q.** What about the “BM CD45, cells staining positive” value [1, 5] of the same compound?
**A.** The value was 42%.

**Q.** And the “BM MAC1, cells staining positive” value [1, 5]?
**A.** Its value is 10%.

**Q.** What about the “LN CD3, cells staining positive” value [1, 5] of the same compound?
**A.** Its value is 96%.

**Q.** And the “LN CD4, cells staining positive” value [1, 5]?
**A.** The value was 41%.

**Q.** What about the “LN CD8, cells staining positive” value [1, 5] of the same compound?
**A.** Its value is 29%.

**Q.** And the “LN CD45, cells staining positive” value [1, 5]?
**A.** The value was 18%.

**Q.** What about the “LN MAC1, cells staining positive” value [1, 5] of the same compound?
**A.** The value was 1%.

**Q.** What about the “PBL CD3, cells staining positive” value [1, 5] of the same compound?
**A.** The value was 71%.

**Q.** And the “PBL CD4, cells staining positive” value [1, 5]?
**A.** Its value is 18%.

**Q.** And the “PBL CD8, cells staining positive” value [1, 5]?
**A.** The value was 10%.

**Q.** And the “PBL CD45, cells staining positive” value [1, 5]?
**A.** Its value is 38%.

**Q.** What about the “PBL MAC1, cells staining positive” value [1, 5] of the same compound?
**A.** The value was 9%.

**Q.** And the “Spleen CD3, cells staining positive” value [1, 5]?
**A.** Its value is 47%.

**Q.** What about the “Spleen CD4, cells staining positive” value [1, 5] of the same compound?
**A.** Its value is 16%.

**Q.** What about the “Spleen CD8, cells staining positive” value [1, 5] of the same compound?
**A.** Its value is 5%.

**Q.** What about the “Spleen CD45, cells staining positive” value [1, 5] of the same compound?
**A.** Its value is 39%.

**Q.** And the “Spleen MAC1, cells staining positive” value [1, 5]?
**A.** Its value is 1%.

**Q.** What about the “Thymus CD3, cells staining positive” value [1, 5] of the same compound?
**A.** The value was 16%.

**Q.** What about the “Thymus DN, cells staining positive” value [1, 5] of the same compound?
**A.** Its value is 10%.

**Q.** And the “Thymus DP, cells staining positive” value [1, 5]?
**A.** Its value is 70%.

**Q.** What about the “Thymus SP4, cells staining positive” value [1, 5] of the same compound?
**A.** The value was 12%.

**Q.** What about the “Thymus SP8, cells staining positive” value [1, 5] of the same compound?
**A.** Its value is 8%.

**Q.** And the “BM Cell Number” value [2, 5]?
**A.** The value was 27.

**Q.** What about the “LN Cell Number” value [2, 5] of the same compound?
**A.** The value was 6.8.

**Q.** What about the “Spleen Cell Number” value [2, 5] of the same compound?
**A.** The value was 37.

**Q.** What about the “Spleen Weight” value [2, 5] of the same compound?
**A.** Its value is 0.10.

**Q.** What about the “Thymus Cell Number” value [2, 5] of the same compound?
**A.** The value was 72.

**Q.** And the “Thymus Weight” value [2, 5]?
**A.** Its value is 0.03.
